Laboratory results published in patent US9072734B2, “Quaternary ammonium salt compounds” (Teijin Pharma Limited, priority 2009, dated 2015).
Where a name gives a salt, the structure may show the parent alone.

Experiments:
[1] = target: T1, human β2 adrenergic receptor (Homo sapiens, UniProt P07550); assay: Whole-cell cAMP Flashplate assay using CHO-K1 cells stably expressing human β2 adrenergic receptor; assay type: cell-based; settings: cAMP production
T1 construct: expressed in transfected cells; host or cells: CHO-K1
T1 sequence (P07550 whole entry): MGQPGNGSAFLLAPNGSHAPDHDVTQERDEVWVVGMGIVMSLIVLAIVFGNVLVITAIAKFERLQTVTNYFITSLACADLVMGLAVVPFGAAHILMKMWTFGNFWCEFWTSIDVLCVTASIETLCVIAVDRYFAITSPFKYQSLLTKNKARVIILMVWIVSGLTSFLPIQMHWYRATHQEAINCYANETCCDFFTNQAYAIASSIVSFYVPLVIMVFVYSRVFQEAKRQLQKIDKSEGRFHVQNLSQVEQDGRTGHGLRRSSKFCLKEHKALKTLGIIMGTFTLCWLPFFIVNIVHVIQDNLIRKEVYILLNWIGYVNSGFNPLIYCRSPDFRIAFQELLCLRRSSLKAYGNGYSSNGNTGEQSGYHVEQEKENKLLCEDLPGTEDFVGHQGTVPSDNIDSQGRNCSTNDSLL

[2] = target: T2, human M3 muscarinic receptor (Homo sapiens, UniProt P20309); assay: Inhibitory effect on methacholine-induced calcium influx, FLIPR assay, CHO-K1 cells stably expressing the human M3 muscarinic receptor; assay type: cell-based; settings: inhibition of calcium influx induced by methacholine
T2 construct: expressed in transfected cells; host or cells: CHO-K1
T2 sequence (P20309 whole entry): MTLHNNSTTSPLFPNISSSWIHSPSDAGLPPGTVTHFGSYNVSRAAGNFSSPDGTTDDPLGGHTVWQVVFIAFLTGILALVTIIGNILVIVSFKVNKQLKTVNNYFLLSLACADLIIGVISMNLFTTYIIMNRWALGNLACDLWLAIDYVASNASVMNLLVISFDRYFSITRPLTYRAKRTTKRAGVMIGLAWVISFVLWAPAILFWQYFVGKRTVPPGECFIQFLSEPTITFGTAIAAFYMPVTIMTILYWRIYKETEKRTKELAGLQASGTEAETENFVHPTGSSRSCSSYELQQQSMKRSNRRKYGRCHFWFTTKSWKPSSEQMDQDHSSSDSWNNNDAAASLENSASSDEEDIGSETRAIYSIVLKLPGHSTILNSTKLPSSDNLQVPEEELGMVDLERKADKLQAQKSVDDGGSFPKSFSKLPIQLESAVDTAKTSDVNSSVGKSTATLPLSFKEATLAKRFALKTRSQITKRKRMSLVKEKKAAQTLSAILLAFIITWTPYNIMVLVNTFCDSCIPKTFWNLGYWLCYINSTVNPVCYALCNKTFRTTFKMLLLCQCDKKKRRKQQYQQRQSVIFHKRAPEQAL
From the text: Muscarinic receptor subtypes (M1, M3 and M5 receptors), which couple to Gq proteins, activate the phospholipase C (PLC) pathway upon agonist binding to the receptor. As a result, the activated PLC hydrolyzes phosphatidyl inositol diphosphate (PIP2) to diacyl glycerol (DAG) and […] (IP3), which in turn generates calcium release from intracellular stores, i.e., endoplasmic and sarcoplasmic reticula. By utilizing FLIPR (Molecular Devices, Inc.) assay in which a calcium sensitive dye (Component A) is used that fluoresces when free calcium binds, the increase in intracellular calcium is measured on the basis of the change in the fluorescence intensity.
Methacholine was added to CHO-K1 cells stably expressing the human M3 muscarinic receptor to induce calcium influx and evaluate the inhibitory effect of test compounds. In the experiment, a FLIPR Calcium assay kit (Molecular Devices, Inc.) was used.
CHO-K1 cells stably expressing the human M3 muscarinic receptor suspended in Ham's F-12 media (Invitrogen, Co.) containing 10% fetal bovine serum (FBS) were seeded into 96-well FLIPR plates at a volume of 100 μL/well. Next day, 60 μL/well of Non-wash-dye solution (Hank's buffered salt solution, HBSS, containing 20 mM HEPES and 6.5 mM probenecid) was added to the cells, which were then incubated for an hour at 37° C. in the presence of 5% carbon dioxide. 20 μL of 10 concentrations of test compound solutions (HBSS containing 1% DMSO, 20 mM HEPES, 2.5 mM probenecid and 0.05% bovine serum albumin, BSA) prepared at concentrations in a range of 0.01-1000 nM with 2-fold serial dilution) were added, followed by incubation for 180 seconds. Then, 20 μL of 30 nM methacholine solution (HBSS containing 20 mM HEPES, 2.5 mM probenecid and 0.05% bovine serum albumin, BSA) was added, and fluorescence intensity was traced by the intracellular calcium influx measuring device FLIPR 96 (Molecular Devices, Inc.) for 170 seconds. The difference between the lowest and the highest values of the fluorescence intensity (FI) over the period of the measurement was used as a measured value. The percentages of inhibition by the test compounds were calculated according to the following formula from the measured value of the methacholin-added and test compound non-added sample (FIpositive), the measured value of the methacholin non-added and test compound non-added sample (FInegative), and the measured value of the methacholin-added and test compound-added sample (FItest). (%) Percentage of inhibition by test compound=[(1−(FItest−FInegative)/(FIpositive−FInegative)]×100
The 50% inhibitory concentrations (IC50 values) of test compounds were analyzed by a four-parameter logistic model using XLfit4 (IDBS, Ltd.) for the percentage of the inhibition by different concentrations of test compounds.

SMILES | EC50 [1] | IC50 [2]
C[N+]1(C)CCC(OC(=O)Nc2cc(CCC(=O)Nc3cc(F)c(CNC[C@H](O)c4ccc(O)c5[nH]c(=O)ccc45)cc3F)ccc2-c2ccccc2)CC1 [Example 5, 4-({[5-(2-{[2,5-difluoro-4-({[(2R)-2-hydroxy-2-(8-hydroxy-2-oxo-1,2-dihydroquinolin-5-yl)ethyl]amino}methyl)phenyl]carbamoyl}ethyl)-2-phenylphenyl]carbamoyl}oxy)-1,1-dimethylpiperidin-1-ium trifluoroacetate] | 8.2 nM | 19.2 nM
C[N+]1(C)[C@@H]2CC(OC(=O)Nc3cc(CCC(=O)Nc4ccc(CNC[C@H](O)c5ccc(O)c6[nH]c(=O)ccc56)c(Cl)c4)ccc3-c3ccccc3)C[C@H]1[C@@H]1O[C@@H]12 (stereo partly drawn) [Example 45, (1R,2R,4S,5S,7S)-7-({[5-(2-{[3-chloro-4-({[(2R)-2-hydroxy-2-(8-hydroxy-2-oxo-1,2-dihydroquinolin-5-yl)ethyl]amino}methyl)phenyl]carbamoyl}ethyl)-2-phenylphenyl]carbamoyl}oxy)-9,9-dimethyl-3-oxa-9-azatricyclo[3.3.1.0^2,4]nonan-9-ium trifluoroacetate] | 4.1 nM | 26.5 nM
C[N+]1(C)CCC(OC(=O)Nc2cc(CCC(=O)Nc3ccc(CNC[C@H](O)c4ccc(O)c5[nH]c(=O)ccc45)cc3F)ccc2-c2ccccc2)CC1 [Example 4, 4-({[5-(2-{[2-fluoro-4-({[2R)-2-hydroxy-2-(8-hydroxy-2-oxo-1,2-dihydroquinolin-5-yl)ethyl]amino}methyl)phenyl]carbamoyl}ethyl)-2-phenylphenyl]carbamoyl}oxy)-1,1-dimethylpiperidin-1-ium trifluoroacetate] | 4.1 nM | 4.9 nM
C[N+]1(C)CCC(OC(=O)Nc2cc(CCC(=O)Nc3ccc(CCCNC[C@H](O)c4ccc(O)c5[nH]c(=O)ccc45)cc3)ccc2-c2ccccc2)CC1 [Example 62, 4-({[5-(2-{[4-(3-{[(2R)-2-hydroxy-2-(8-hydroxy-2-oxo-1,2-dihydroquinolin-5-yl)ethyl]amino}propyl)phenyl]carbamoyl}ethyl)-2-phenylphenyl]carbamoyl}oxy)-1,1-dimethylpiperidin-1-ium trifluoroacetate] | 1.5 nM | 51.3 nM
C[N+]1(C)CCC(OC(=O)Nc2cc(CCC(=O)Nc3ccc(CNC[C@H](O)c4ccc(O)c5[nH]c(=O)ccc45)cc3Cl)ccc2-c2ccccc2)CC1 [Example 9, 4-({[5-(2-{[2-chloro-({[(2R)-2-hydroxy-2-(8-hydroxy-2-oxo-1,2-dihydroquinolin-5-yl)ethyl]amino}methyl)phenyl]carbamoyl}ethyl)-2-phenylphenyl]carbamoyl}oxy)-1,1-dimethylpiperidin-1-ium trifluoroacetate] | 1.9 nM | 10.1 nM
C[N+]1(C)CCC(OC(=O)Nc2cc(CCC(=O)Nc3ccc(CCNC[C@H](O)c4ccc(O)c5[nH]c(=O)ccc45)cc3)ccc2-c2ccccc2)CC1 [Example 63, 4-({[5-(2-{[4-(2-{[(2R)-2-hydroxy-2-(8-hydroxy-2-oxo-1,2-dihydroquinolin-5-yl)ethyl]amino}ethyl)phenyl]carbamoyl}ethyl)-2-phenylphenyl]carbamoyl}oxy)-1,1-dimethylpiperidin-1-ium trifluoroacetate] | 5.6 nM | 41.7 nM
C[N+]1(C)CCC(OC(=O)Nc2ccc(CCC(=O)Nc3ccc(CNC[C@H](O)c4ccc(O)c5[nH]c(=O)ccc45)cc3)cc2-c2ccccc2)CC1 [Example 69, 4-({[4-(2-{[4-({[(2R)-2-hydroxy-2-(8-hydroxy-2-oxo-1,2-dihydroquinolin-5-yl)ethyl]amino}methyl)phenyl]carbamoyl}ethyl)-2-phenylphenyl]carbamoyl}oxy)-1,1-dimethylpiperidin-1-ium trifluoroacetate] | 16 nM | 44.7 nM

Other lines, results leading:

EC50 [1] | IC50 [2] | SMILES
10.6 nM | 15.6 nM | COc1cc(CNC[C@H](O)c2ccc(O)c3[nH]c(=O)ccc23)ccc1NC(=O)CCCc1ccc(-c2ccccc2)c(NC(=O)OC2C[C@@H]3[C@H]4O[C@H]4[C@H](C2)[N+]3(C)C)c1 (stereo partly drawn) [Example 38, (1R,2R,4S,5S,7S)-7-({[5-(3-{[4-({[(2R)-2-hydroxy-2-(8-hydroxy-2-oxo-1,2-dihydroquinolin-5-yl)ethyl]amino}methyl)-2-methoxyphenyl]carbamoyl}propyl)-2-phenylphenyl]carbamoyl}oxy)-9,9-dimethyl-3-oxa-9-azatricyclo[3.3.1.0^2,4]nonan-9-ium trifluoroacetate]
1.9 nM | 16.5 nM | CCOc1cc(NC(=O)CCc2ccc(-c3ccccc3)c(NC(=O)OC3C[C@@H]4[C@H]5O[C@H]5[C@H](C3)[N+]4(C)C)c2)ccc1CNC[C@H](O)c1ccc(O)c2[nH]c(=O)ccc12 (stereo partly drawn) [Example 47, (1R,2R,4S,5S,7S)-7-({[5-(2-{[4-({[(2R)-2-hydroxy-2-(8-hydroxy-2-oxo-1,2-dihydroquinolin-5-yl)ethyl]amino}methyl)-3-ethoxyphenyl]carbamoyl}ethyl)-2-phenylphenyl]carbamoyl}oxy)-9,9-dimethyl-3-oxa-9-azatricyclo[3.3.1.0^2,4]nonan-9-ium trifluoroacetate]
0.3 nM | 49 nM | C[N+]1(C)[C@@H]2C[C@@H](OC(=O)Nc3ccc(CCCC(=O)Nc4ccc(CNC[C@H](O)c5ccc(O)c6[nH]c(=O)ccc56)cc4Br)cc3-c3ccccc3)C[C@H]1[C@@H]1O[C@@H]12 [Example 72, (1R,2R,4S,5S,7S)-7-({[4-(3-{[2-bromo-4-({[(2R)-2-hydroxy-2-(8-hydroxy-2-oxo-1,2-dihydroquinolin-5-yl)ethyl]amino}methyl)phenyl]carbamoyl}propyl)-2-phenylphenyl]carbamoyl}oxy)-9,9-dimethyl-3-oxa-9-azatricyclo[3.3.1.0^2,4]nonan-9-ium trifluoroacetate]
0.2 nM | 51.8 nM | COc1cc(NC(=O)CCCc2ccc(NC(=O)O[C@@H]3C[C@@H]4[C@H]5O[C@H]5[C@H](C3)[N+]4(C)C)c(-c3ccccc3)c2)c(Cl)cc1CNC[C@H](O)c1ccc(O)c2[nH]c(=O)ccc12 [Example 55, (1R,2R,4S,5S,7S)-7-({[4-(3-{[2-chloro-4-({[(2R)-2-hydroxy-2-(8-hydroxy-2-oxo-1,2-dihydroquinolin-5-yl)ethyl]amino}methyl)-5-methoxyphenyl]carbamoyl}propyl)-2-phenylphenyl]carbamoyl}oxy)-9,9-dimethyl-3-oxa-9-azatricyclo[3.3.1.0^2,4]nonan-9-ium trifluoroacetate]
0.2 nM | 60.3 nM | COc1cc(NC(=O)CCCc2ccc(NC(=O)O[C@@H]3C[C@@H]4[C@H]5O[C@H]5[C@H](C3)[N+]4(C)C)c(-c3ccccc3)c2)c(Br)cc1CNC[C@H](O)c1ccc(O)c2[nH]c(=O)ccc12 [Example 70, (1R,2R,4S,5S,7S)-7-({[4-(3-{[2-bromo-4-({[(2R)-2-hydroxy-2-(8-hydroxy-2-oxo-1,2-dihydroquinolin-5-yl)ethyl]amino}methyl)-5-methoxyphenyl]carbamoyl}propyl)-2-phenylphenyl]carbamoyl}oxy)-9,9-dimethyl-3-oxa-9-azatricyclo[3.3.1.0^2,4]nonan-9-ium trifluoroacetate]
